Reference: US4503044A, “Antibiotic LL-D05139 β” (American Cyanamid Company, priority 1983, dated 1985)
≈ marks a conversion by molar mass, not a printed value. Read-outs that look alike come from different tables or passages of the source.

Key:
[1] = tested on: human lung carcinoma (LX-1); test: Human tumor clonogenic assay, lung carcinoma; type: cell-based; details: for T/C / Av. No. of Colonies/Culture: Lung Carcinoma; for T/C: active if T/C ≤30%; for Av. No. of Colonies/Culture: colonies counted after 10-11 days, control 590
Protocol: (§1) This test was performed essentially by the method of A. Hamburger and S. Salmon, Primary bioassay of humor tumor stem cells., Science, 197: 461-463 (1977). Human colon carcinoma (CX-1) and human lung carcinoma (LX-1) tumors were obtained from the National Cancer Institute and propagated in athymic Balb/c mice. Freshly removed tumors were dispersed with trypsin 0.25% and 5×10^4 lung carcinoma cells or 1×10^5 colon carcinoma cells in soft (0.3%) agarose medium containing 0.1 ml of test drug were plated onto a solidified (0.5%) agarose base medium in 35 mm grided dishes. Cultures were incubated at 37° C. in a humidified 5% carbon dioxide in air atmosphere. Colonies were counted after 10-11 days. A compound is considered active if the treated/control (T/C) value is ≤30%, representing a 70% cell kill.

[2] = tested on: human colon carcinoma (CX-1); test: Human tumor clonogenic assay, colon carcinoma; type: cell-based
Protocol: as §1

[3] = tested on: Candida albicans; test: In vitro antibacterial activity, agar dilution; type: cell-based; details: 18 h, 35° C., read-out: Minimal Inhibitory Concentration
Protocol: (§2) This antibacterial agent is active in vitro against gram-positive and gram-negative bacteria when tested by the standard agar dilution procedure with Mueller-Hinton agar, and an inoculum of each test organism of approximately 10^4 colony-forming units delivered by a Steers replicating device. The minimal inhibitory concentration (mcg/ml) was defined as the lowest concentration of antibiotic LL-D05139β that inhibited visible growth after 18 hours incubation at 35° C.

[4] = tested on: Acinetobacter calcoaceticus; test: In vitro antibacterial activity, agar dilution; type: cell-based; details: 18 h, 35° C., read-out: Minimal Inhibitory Concentration
Protocol: as §2

[5] = tested on: Micrococcus luteus; test: In vitro antibacterial activity, agar dilution; type: cell-based; details: Micrococcus luteus PCI-1001; Mueller-Hinton agar, 18 hours, 35° C.; read-out: Minimal Inhibitory Concentration
Protocol: as §2

[6] = tested on: Proteus rettgeri; test: In vitro antibacterial activity, agar dilution; type: cell-based; details: Providencia rettgeri; Proteus rettgeri N-76-1; Mueller-Hinton agar, 18 hours, 35° C.; read-out: Minimal Inhibitory Concentration
Protocol: as §2

[7] = tested on: Proteus morganii; test: In vitro antibacterial activity, agar dilution; type: cell-based; details: Morganella morganii; Proteus morganii K-79-25; Mueller-Hinton agar, 18 hours, 35° C.; read-out: Minimal Inhibitory Concentration
Protocol: as §2

[8] = tested on: Salmonella sp.; test: In vitro antibacterial activity, agar dilution; type: cell-based; details: Salmonella sp. QHC-77-3; Mueller-Hinton agar, 18 hours, 35° C.; read-out: Minimal Inhibitory Concentration
Protocol: as §2

[9] = tested on: Bacillus subtilis; test: In vitro antibacterial activity, agar dilution; type: cell-based; details: ATCC6633; Bacillus subtilis ATCC 6633; Mueller-Hinton agar, 18 hours, 35° C.; read-out: Minimal Inhibitory Concentration
Protocol: as §2

[10] = tested on: Pasteurella multocida; test: In vitro antibacterial activity, agar dilution; type: cell-based; details: Pasteurella multocida LL #117; Mueller-Hinton agar, 18 hours, 35° C.; read-out: Minimal Inhibitory Concentration
Protocol: as §2

[11] = tested on: Serratia sp.; test: In vitro antibacterial activity, agar dilution; type: cell-based; details: Serratia sp. TU1-78-15; Mueller-Hinton agar, 18 hours, 35° C.; read-out: Minimal Inhibitory Concentration
Protocol: as §2

[12] = tested on: Staphylococcus aureus; test: In vitro antibacterial activity, agar dilution; type: cell-based; details: Mueller-Hinton agar, 18 hours, 35° C.; for MIC: read-out: Minimal Inhibitory Concentration
Protocol: as §2

[13] = tested on: Pseudomonas aeruginosa; test: In vitro antibacterial activity, agar dilution; type: cell-based; details: 35° C., read-out: Minimal Inhibitory Concentration
Protocol: as §2

[14] = tested on: Escherichia coli; test: In vitro antibacterial activity, agar dilution; type: cell-based; details: 35° C., read-out: Minimal Inhibitory Concentration
Protocol: as §2

[15] = tested on: Enterobacter cloacae; test: In vitro antibacterial activity, agar dilution; type: cell-based; details: Enterobacter cloacae K-79-16; Mueller-Hinton agar, 18 hours, 35° C.; read-out: Minimal Inhibitory Concentration
Protocol: as §2

[16] = tested on: Providencia stuarti; test: In vitro antibacterial activity, agar dilution; type: cell-based; details: Mueller-Hinton agar, 18 hours, 35° C.
Protocol: as §2

[17] = tested on: Enterococcus sp.; test: In vitro antibacterial activity, agar dilution; type: cell-based; details: Mueller-Hinton agar, 18 hours, 35° C.
Protocol: as §2

[18] = tested on: Serratia marcescens; test: In vitro antibacterial activity, agar dilution; type: cell-based; details: Serratia marcescens QHC-77-2; Mueller-Hinton agar, 18 hours, 35° C.; read-out: Minimal Inhibitory Concentration
Protocol: as §2

[19] = tested on: Enterobacter aerogenes; test: In vitro antibacterial activity, agar dilution; type: cell-based; details: Klebsiella aerogenes; Enterobacter aerogenes Stfd-79-14; Mueller-Hinton agar, 18 hours, 35° C.; read-out: Minimal Inhibitory Concentration
Protocol: as §2

[20] = tested on: Klebsiella pneumoniae; test: In vitro antibacterial activity, agar dilution; type: cell-based; details: 18 h, 35° C., read-out: Minimal Inhibitory Concentration
Protocol: as §2

[21] = Stability in solution as a function of pH; type: physicochemical
[22] = tested on: lymphocytic leukemia P388; test: Lymphocytic Leukemia P388 Test; type: in vivo; details: DBA/2 mice, efficacy criterion ≥125%
Protocol: The animals used were DBA/2 mice, all of one sex, weighing a minimum of 17 g and all within a 3 g weight range. There were three animals per test group. The tumor transplant was by intraperitoneal injection of 0.1 ml of dilute ascitic fluid containing 10^6 cells of lymphocytic leukemia P388. LL-D05139β was administered intraperitoneally on days 1, 5 and 9 (relative to tumor inoculation) at various doses. The animals were weighed and survivors recorded on a regular basis for 30 days. The ratio of survival time for treated (T)/control (C) animals was calculated. The positive control compound was 5-fluorouracil, given as a 60 mg/kg injection. The criterion for efficacy is T/C×100≥125%.

For `C[C@H](N)C(=O)N[C@@H](COC(=O)C=[N+]=[N-])C(=O)O` [LL-D05139β, N-L-alanyl-L-serine diazoacetate], the T/C ([1]; concentration 2 mgc/ml) was 23.2%, the “Av. No. of Colonies/Culture” value ([1]; concentration 2 mgc/ml) was 137 and the T/C ([1]; concentration 20 mgc/ml) was 17.8%. The “Av. No. of Colonies/Culture” value ([1]; concentration 20 mgc/ml) was 105, the T/C ([1]; concentration 200 mgc/ml) was 13.0% and the “Av. No. of Colonies/Culture” value ([1]; concentration 200 mgc/ml) was 78. The “activity in human tumor clonogenic (stem cell) assay” value ([1]; human lung (LX-1) carcinoma, at 2.0 mcg/ml and higher doses) was “active”, the T/C ([2]; Colon Carcinoma, concentration 2 mgc/ml, active if T/C ≤30%) was 16.0% and the “Av. No. of Colonies/Culture” value ([2]; Colon Carcinoma, concentration 2 mgc/ml, colonies counted after 10-11 days, control 420) was 67. The “activity in human tumor clonogenic (stem cell) assay” value ([2]; colon (CX-1) carcinoma, at 2.0 mcg/ml and higher doses) was “active”, the MIC ([3]; Candida albicans LL #32, Mueller-Hinton agar) was 64 µg/mL (≈ 262 µM) and the MIC ([3]; Candida albicans LL #54, Mueller-Hinton agar) was 128 µg/mL (≈ 524 µM). The MIC ([4]; Acinetobacter calcoaceticus K-77-1, Mueller-Hinton agar) was 128 µg/mL (≈ 524 µM), the MIC ([4]; Acinetobacter calcoaceticus Stfd-79-17, Mueller-Hinton agar) was 512 µg/mL (≈ 2100 µM) and the MIC [5] was 4 µg/mL (≈ 16.4 µM). The MIC [6] was 16 µg/mL (≈ 65.5 µM), the MIC [7] was 64 µg/mL (≈ 262 µM) and the MIC [8] was 4 µg/mL (≈ 16.4 µM). It also gave an MIC [9] of 16 µg/mL (≈ 65.5 µM), an MIC [10] of 64 µg/mL (≈ 262 µM) and an MIC [11] of 64 µg/mL (≈ 262 µM). The MIC ([12]; ATCC25923, Staphylococcus aureus ATCC 25923) was 16 µg/mL (≈ 65.5 µM), the “Minimal Inhibitory Concentration” value ([12]; Staphylococcus aureus FU-79-2) was 16 µg/mL and the MIC ([12]; Staphylococcus aureus SSC-79-18) was 16 µg/mL (≈ 65.5 µM). For the same compound, the MIC ([13]; 18 h, Pseudomonas aeruginosa 12-4-4, Mueller-Hinton agar) was 128 µg/mL (≈ 524 µM), the MIC ([13]; 18 h, Pseudomonas aeruginosa SSC-78-13, Mueller-Hinton agar) was 512 µg/mL (≈ 2100 µM) and the MIC ([13]; ATCC27853, 18 h, Pseudomonas aeruginosa ATCC 27853, Mueller-Hinton agar) was 128 µg/mL (≈ 524 µM). For the same compound, the MIC ([14]; 18 h, Escherichia coli #31, Mueller-Hinton agar) was 4 µg/mL (≈ 16.4 µM), the MIC ([14]; 18 h, Escherichia coli Stfd-79-20, Mueller-Hinton agar) was 8 µg/mL (≈ 32.8 µM) and the MIC ([14]; ATCC25922, 18 h, Escherichia coli ATCC 25922, Mueller-Hinton agar) was 8 µg/mL (≈ 32.8 µM). The MIC [15] was 128 µg/mL (≈ 524 µM), the “Minimal Inhibitory Concentration” value ([16]; Providencia stuarti K-81-29) was 64 µg/mL and the MIC ([16]; Providencia stuarti SSC-80-78, read-out: Minimal Inhibitory Concentration) was 64 µg/mL (≈ 262 µM). The MIC ([17]; Enterococcus sp. OSU-75-1, read-out: Minimal Inhibitory Concentration) was 64 µg/mL (≈ 262 µM), the “Minimal Inhibitory Concentration” value ([17]; Enterococcus sp. SM-77-15) was 64 µg/mL and the MIC [18] was 32 µg/mL (≈ 131 µM). It also gave an MIC [19] of 128 µg/mL (≈ 524 µM), an MIC ([20]; Klebsiella pneumoniae AD, Mueller-Hinton agar) of 4 µg/mL (≈ 16.4 µM) and an MIC ([20]; Klebsiella pneumoniae SSC-78-1, Mueller-Hinton agar) of 128 µg/mL (≈ 524 µM). The MIC ([20]; Klebsiella pneumoniae Stfd-79-6, Mueller-Hinton agar) was 128 µg/mL (≈ 524 µM), the stability in acid ([21]; acid, solutions kept between pH 7 and pH 9.5 during isolation) was “poor stability” and the stability ([21]; below pH 5.0) was “Decomposes rapidly”. For the same compound, the stability ([21]; weakly basic solutions) was “stable”, the “T/C × 100 (survival time treated/control)” value ([22]; 25 mg/kg intraperitoneally on days 1, 5 and 9) was 140% and the “T/C × 100 (survival time treated/control)” value ([22]; 50 mg/kg intraperitoneally on days 1, 5 and 9) was 150%. For the same compound, the “T/C × 100 (survival time treated/control)” value ([22]; 200 mg/kg intraperitoneally on days 1, 5 and 9) was 140%.
